# Source: PubChem BioAssay AID463204 (Broad Institute, 2010)
# Calls of active or inactive are those of the source.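 The calls were made as follows: active = AC50 no more than ten times the top concentration tested, that is within one log above it; inconclusive = flat curve fit with activity between 30% and 70%, or invalid poor fit; inactive = AC50 beyond ten times the top tested dose.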
# System: S. cerevisiae Mot1-301 ts growth rescue, BacTiter-Glo ATP luminescence
# Test: restored Mot1-301 yeast growth at 38.5C – whole organism, S. cerevisiae, Mot1-301 ts mutant, luminescence, dose retest, SUMOylation pathway inhibitor project, confirmation (AID 463204);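 also: growth at restrictive 38.5 degrees C of Mot1-301 OY566 strain; actives raise luminescence by restoring growth of the ts mutant at high temperature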
row,SMILES,AC50
1,COc1ccc2c(c1)[C@H]1[C@H](CO2)[C@H](c2ccccc2)[C@]2(C)C(=O)Nc3ccc(F)cc3C(=O)N12,5.38 µM
2,COc1cc(NC(=O)C2=CC(c3ccco3)=NS(=O)(=O)N2C)cc(OC)c1OC,> 42 µM (inactive)
3,Cc1ccc(-c2[nH]ncc2CNCCc2cnn(-c3ccccc3)c2)cc1C,> 42 µM (inactive)
4,C/C(=N/Nc1ccc(F)cc1)c1ccc(Cl)s1,> 42 µM (inactive)
5,Cc1cc(C(F)(F)F)c(C#N)c(=O)[nH]1,> 42 µM (inactive)
6,CCOc1ccccc1CN1CCN(Cc2ccon2)CC1CCO (stereo not drawn),> 42 µM (inactive)
7,COC(=O)c1cc(Cl)c(NC(=O)C(C)C)cc1OC,> 42 µM (inactive)
8,COc1ccc(NC(=O)c2ccc(S(=O)(=O)N(C)c3ccccc3)cc2)cn1,> 42 µM (inactive)
9,Cc1nc2c(-c3ccc(F)cc3)cnn2c2c1CCC2,> 42 µM (inactive)
10,Cc1nc2sc(C(c3ccccc3)N3CCC(O)CC3)c(O)n2n1 (stereo not drawn),> 42 µM (inactive)
11,CCOC(=O)C1(c2ccccc2)CCN(CCC(=O)Nc2ccccc2OC)CC1,> 42 µM (inactive)
12,CC1=C(C)CS(=O)N(S(=O)(=O)c2ccc(Cl)cc2)C1 (stereo not drawn),3.41 µM
13,Fc1ccc(-c2nnc3ccc(N4CCCC4)nn23)cc1,> 42 µM (inactive)
14,O=C(NCc1ccccc1)c1cccc(COc2ccc(Cl)cc2)c1,> 42 µM (inactive)
15,COC(=O)C1(Cc2cc(-c3ccccc3)no2)CCN(C(=O)OC(C)(C)C)CC1,> 42 µM (inactive)
16,COc1ccc(NC(=O)CCCc2ccccc2)cc1OC,> 42 µM (inactive)
17,O=C(c1ccc(CS(=O)(=O)c2ccccc2)o1)N1CCOCC1,> 42 µM (inactive)
18,CC1(C)CNc2cc([N+](=O)[O-])ccc2S1,27.7 µM
19,Cc1cccc(/C=N/NC(=O)Cc2cccs2)c1,> 42 µM (inactive)
20,O=C(OCCCCOC(=O)c1ccccc1)c1ccccc1,> 42 µM (inactive)
21,O=C(O)CCC(NC(=O)c1ccc(Cl)cc1)C(=O)O (stereo not drawn),> 42 µM (inactive)
22,O=C(O)c1cccc(N2C(=O)C3C4C=CC(C4=C(c4ccccc4)c4ccccc4)C3C2=O)c1 (stereo not drawn),> 42 µM (inactive)
23,Cc1ccccc1P(=O)(CO)c1ccccc1C,> 42 µM (inactive)
24,FC(F)(F)c1nnc(-c2ccccc2)nc1Oc1ccc(Cl)cc1Cl,> 42 µM (inactive)
25,CC1=C(C(=O)Nc2ccccc2)C(c2ccccc2[N+](=O)[O-])NC(=O)N1 (stereo not drawn),> 42 µM (inactive)

row,SMILES,AC50
1,Cc1nnc(SCC(=O)NC(C)(C)C)n1NCc1ccc(Cl)cc1,> 42 µM (inactive)
2,CCCCNS(=O)(=O)c1ccc(OC)cc1,> 42 µM (inactive)
3,CC(C)COc1ccc(C(=O)Nc2ccc([N+](=O)[O-])cc2)cc1,> 42 µM (inactive)
4,COC(=O)/C=C\C(=O)Nc1cccc([N+](=O)[O-])c1,2.95 µM
5,O=c1c2c(ncn1Cc1ccccc1)nc1n2CCC1,> 42 µM (inactive)
6,COc1cc(C(=O)Oc2cccnc2)cc(OC)c1OC,> 42 µM (inactive)
7,COc1ccc(CN2CCCCCC2)cc1,> 42 µM (inactive)
8,COc1cc(C(c2c(C)[nH][nH]c2=O)c2c(C)[nH][nH]c2=O)cc(OC)c1OC,> 42 µM (inactive)
9,CCOC(=O)c1ccccc1NC(=O)C1CC(=O)N(C2CCCCC2)C1 (stereo not drawn),> 42 µM (inactive)
10,CSc1ccc(CN2CCN(S(=O)(=O)Cc3ccccc3)CC2)cc1,> 42 µM (inactive)
11,CSc1ccc(Cl)c(C(=O)Nc2ccc(N3CCOCC3)cc2)c1,> 42 µM (inactive)
12,CN(Cc1cccnc1)Cc1cn[nH]c1-c1ccc(-c2ccccc2)cc1,> 42 µM (inactive)
13,CCOc1ccccc1NC(=O)CSc1nc(N)c(C#N)cc1C#N,> 42 µM (inactive)
14,COc1ccc(C(=O)N2CCN(c3ccc(NC(=O)c4cccnc4)cc3)CC2)cc1,> 42 µM (inactive)
15,O=C(c1ccc(Br)cc1)C(CN1CCOCC1)c1ccccc1 (stereo not drawn),0.65 µM
16,Cc1ccc2nc(NC(=O)C3CCN(S(=O)(=O)c4cccnc4)CC3)sc2c1,> 42 µM (inactive)
17,COc1ccccc1/C=C/C(=O)N1CCc2cc(OC)c(OC)cc2C1C (stereo not drawn),> 42 µM (inactive)
18,O=C1CN(C(=O)COC(=O)CCNS(=O)(=O)c2ccc(Cl)cc2)c2ccccc2N1,> 42 µM (inactive)
19,O=C(c1cc(F)ccc1F)C1CCCN(C(=O)c2ccc3nccnc3c2)C1 (stereo not drawn),> 42 µM (inactive)
20,O=[N+]([O-])c1cccc(-c2nc3ccc([N+](=O)[O-])cc3[nH]2)c1,> 42 µM (inactive)
21,CN(C)/C=C/C(=O)c1ccncc1,> 42 µM (inactive)
22,Cc1csc(=O)n1CC(=O)OCC(=O)Nc1cc([N+](=O)[O-])ccc1Cl,> 42 µM (inactive)
23,Cc1cc(NC(=O)/C=C/c2ccco2)ccc1NC(=O)c1ccccc1,> 42 µM (inactive)
24,CCOC(=O)C1(CCOc2ccccc2)CCN(Cc2cccc(OC)c2O)CC1,> 42 µM (inactive)
25,COC(=O)C1=C(C)N(Cc2ccccc2)C(=S)N[C@H]1c1cccc(F)c1,> 42 µM (inactive)

row,SMILES,AC50
1,CCCn1c(=O)c2ccccc2n2c(SCC(=O)N3CCc4ccccc4C3)nnc12,> 42 µM (inactive)
2,C/C(=N\NC(=O)c1cccc(N/N=C(\C)c2ccc([N+](=O)[O-])cc2)c1)c1ccc([N+](=O)[O-])cc1,> 42 µM (inactive)
3,CC(NC(=O)c1ccc(Cl)cc1)C(=O)N1CCCCC1 (stereo not drawn),> 42 µM (inactive)
4,CCOC(=O)N1CCN(C(=O)CNC(=O)c2nn(-c3ccc(OC)c(OC)c3)c(=O)c3ccccc23)CC1,> 42 µM (inactive)
5,CCOc1ccccc1NC(=O)c1ccc2c(c1)C(=O)N(CC(C)C)C2=O,> 42 µM (inactive)
6,COc1cccc(-c2nn(-c3ccccc3)cc2/C=C(/NC(=O)c2ccccc2)C(=O)O)c1,> 42 µM (inactive)
7,COc1ccc(NC(=O)c2cc(C)no2)cc1Cl,> 42 µM (inactive)
8,Cn1c(=O)[nH]c(=O)c2c1nc(Sc1ccccc1)n2CCc1ccccc1,> 42 µM (inactive)
9,Cn1c(SCC(=O)N/N=C/c2ccc([N+](=O)[O-])s2)nnc1-c1ccc(Cl)cc1,10.2 µM
10,O=C(O)c1ccc(Cl)c(NCc2cccs2)c1,> 42 µM (inactive)
11,CC1(C)Cc2c(cnn2-c2ccc(F)cc2)C(NC(=O)CCCN2CCCCC2=O)C1 (stereo not drawn),> 42 µM (inactive)
12,C/C(CC1(O)C(=O)Nc2ccccc21)=N\O (stereo not drawn),> 42 µM (inactive)
13,COc1cc(C(=O)COC(=O)c2cc([N+](=O)[O-])ccc2N2CCOCC2)ccc1OC(F)F,29.4 µM
14,CCOC(=O)c1c(C)[nH]c2c1cc(O)c1ccccc12,> 42 µM (inactive)
15,COc1cccc(NC(=O)CN2CCN(c3ccccc3F)CC2)c1,39.1 µM
16,CC(SC#N)C(=O)C12CC3CC(CC(C3)C1)C2 (stereo not drawn),6.33 µM
17,COc1ccc2c(C(=O)CN3CC(C)OC(C)C3)c[nH]c2c1 (stereo not drawn),> 42 µM (inactive)
18,CNC(=O)NNC(=O)c1csc(-c2ccc(C(F)(F)F)cc2Cl)n1,> 42 µM (inactive)
19,CCC(C)(C)n1nnnc1C(c1ccc(OC)c(OC)c1)N1CCN(c2cccc(OC)c2)CC1 (stereo not drawn),> 42 µM (inactive)
20,CCOc1c(Cl)cc(CNCC(O)c2ccccc2)cc1OC (stereo not drawn),> 42 µM (inactive)
21,CSc1nnc2c3cc(C)ccc3n(Cc3ccccc3)c2n1,> 42 µM (inactive)
22,CC(C)(C)Cc1nc(-c2ccccn2)no1,> 42 µM (inactive)
23,O=C(COC(=O)c1c(F)cccc1F)c1ccc[nH]1,> 42 µM (inactive)
